Measurements as given in ChEMBL document CHEMBL1201862, “PubChem BioAssay data set” (2004).
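48-hour exposure; five concentrations; linearly interpolated endpoints. The concentration for 50% growth inhibition is given as GI50.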 Active and inactive are the calls of the source. Rule as the data show it: active = GI50 up to about 1.1 µM and inactive = higher.

What was measured:
Experiment in all cases: DTP human tumour cell line panel, 48 h
[1] = tested on: A498
[2] = tested on: CAKI-1
[3] = tested on: HCC 2998
[4] = tested on: HT-29
[5] = tested on: IGROV-1
[6] = tested on: K562
[7] = tested on: LOX IMVI
[8] = tested on: M14
[9] = tested on: MOLT-4
[10] = tested on: NCI-H460
[11] = tested on: NCI-H522
[12] = tested on: OVCAR-3
[13] = tested on: OVCAR-4
[14] = tested on: OVCAR-5
[15] = tested on: SK-MEL-5
[16] = tested on: SK-OV-3
[17] = tested on: SN12C
[18] = tested on: SNB-75
[19] = tested on: SW-620
[20] = tested on: TK-10

| SMILES | GI50 [1] | GI50 [2] | GI50 [3] | GI50 [4] | GI50 [5] | GI50 [6] | GI50 [7] | GI50 [8] | GI50 [9] | GI50 [10] | GI50 [11] | GI50 [12] | GI50 [13] | GI50 [14] | GI50 [15] | GI50 [16] | GI50 [17] | GI50 [18] | GI50 [19] | GI50 [20] |
| --- | --- | --- | --- | --- | --- | --- | --- | --- | --- | --- | --- | --- | --- | --- | --- | --- | --- | --- | --- | --- |
| O=C(N/N=C1\C(=O)Nc2ccc(Br)cc21)/C(O)=C/C(=O)c1ccc(Cl)cc1 | 26.8 µM (inactive) | > 100 µM (inactive) | 50.5 µM (inactive) | > 100 µM (inactive) | 75.9 µM (inactive) | 8.77 µM (inactive) | 34 µM (inactive) | > 100 µM (inactive) | 0.0705 µM (active) | > 100 µM (inactive) | 23.1 µM (inactive) | 22.4 µM (inactive) | > 100 µM (inactive) | 97.5 µM (inactive) | 57.5 µM (inactive) | 64.1 µM (inactive) | 67.8 µM (inactive) | 43.8 µM (inactive) | 40.8 µM (inactive) | 50.4 µM (inactive) |
| CC(C)Oc1cccc(N2C(n3ccnc3)=Nc3ccncc3S2(=O)=O)c1 | 17.8 µM (inactive) | 13.7 µM (inactive) | 16.9 µM (inactive) | 15.9 µM (inactive) | 14.6 µM (inactive) | 10.2 µM (inactive) | 16.2 µM (inactive) | 13.6 µM (inactive) | 4.3 µM (inactive) | 18.8 µM (inactive) | 9.44 µM (inactive) | 9.35 µM (inactive) | 14 µM (inactive) | 13.8 µM (inactive) | 13.2 µM (inactive) | 17.5 µM (inactive) | 15.5 µM (inactive) | 18.7 µM (inactive) | 12.6 µM (inactive) | 12.1 µM (inactive) |
| CCCCCCCCCCCC(=O)OCC(C[As](=O)(O)O)OC(=O)CCCCCCCCCCC (stereo not given) | 5.15 µM (inactive) | 9.27 µM (inactive) | 6.22 µM (inactive) | 7.62 µM (inactive) | 1.74 µM (inactive) | 5.32 µM (inactive) | 4.76 µM (inactive) | 1.97 µM (inactive) | 3.96 µM (inactive) | 4.05 µM (inactive) | 2.13 µM (inactive) | 8.81 µM (inactive) | 15.1 µM (inactive) | 18.1 µM (inactive) | 1.75 µM (inactive) | 13.8 µM (inactive) | 2.94 µM (inactive) | 6.95 µM (inactive) | 12.1 µM (inactive) | 14.3 µM (inactive) |
| CCOC(=O)c1cn2c(n1)sc1cc([N+](=O)[O-])ccc12 | > 100 µM (inactive) | > 100 µM (inactive) | > 100 µM (inactive) | 86.1 µM (inactive) | > 100 µM (inactive) | > 100 µM (inactive) | > 100 µM (inactive) | > 100 µM (inactive) | > 100 µM (inactive) | > 100 µM (inactive) | > 100 µM (inactive) | > 100 µM (inactive) | > 100 µM (inactive) | > 100 µM (inactive) | > 100 µM (inactive) | > 100 µM (inactive) | > 100 µM (inactive) | 58.2 µM (inactive) | > 100 µM (inactive) | > 100 µM (inactive) |
| COc1ccc(N(C)C(=O)N(C)c2ccc([N+](=O)[O-])cc2)cc1 | 66.4 µM (inactive) | 41.6 µM (inactive) | 33 µM (inactive) | 28.6 µM (inactive) | 43.2 µM (inactive) | 18.4 µM (inactive) | 33.1 µM (inactive) | 34 µM (inactive) | > 100 µM (inactive) | 25.8 µM (inactive) | 23.8 µM (inactive) | 26.7 µM (inactive) | 11.2 µM (inactive) | 39.9 µM (inactive) | 38.8 µM (inactive) | 17.7 µM (inactive) | 61.4 µM (inactive) | 29.6 µM (inactive) | 23.3 µM (inactive) | 10.5 µM (inactive) |
| COC(=O)c1cc2c(s1)C(=O)c1ccccc1-2 | > 100 µM (inactive) | > 100 µM (inactive) | > 100 µM (inactive) | > 10 µM (inactive) | > 100 µM (inactive) | > 100 µM (inactive) | > 100 µM (inactive) | > 100 µM (inactive) | > 100 µM (inactive) | > 100 µM (inactive) | > 100 µM (inactive) | > 100 µM (inactive) | > 100 µM (inactive) | > 100 µM (inactive) | > 100 µM (inactive) | > 100 µM (inactive) | > 100 µM (inactive) | > 100 µM (inactive) | > 100 µM (inactive) | > 100 µM (inactive) |
| CCN(CCO)C(=O)C1(c2ccccc2)CCCCC1 | > 10 µM (inactive) | > 10 µM (inactive) | > 10 µM (inactive) | > 10 µM (inactive) | > 10 µM (inactive) | > 10 µM (inactive) | > 10 µM (inactive) | > 10 µM (inactive) | > 10 µM (inactive) | > 10 µM (inactive) | > 10 µM (inactive) | > 10 µM (inactive) | > 10 µM (inactive) | > 10 µM (inactive) | > 10 µM (inactive) | > 10 µM (inactive) | > 10 µM (inactive) | > 10 µM (inactive) | > 10 µM (inactive) | > 10 µM (inactive) |
